Source: patent US20120115941A1, “Compounds Affecting Glycemic Index” (SACRON INNOVATIONS PTY LIMITED, priority 2009, published 2012)
Read-outs that look alike come from different tables or passages of the source.

What was measured:
Format in all cases: biochemical
[1] = system: rat intestinal α-glucosidase; assay: Mammalian α-glucosidase inhibition assay (rat intestinal acetone powder, maltose substrate)
Description: (§1) Bakers yeast α-glucosidase [EC 3.2.1.20], and porcine pancreatic α-amylase [EC 3.2.1.1]were used during bioassay guided fractionation. Rat intestinal acetone powder was used as a source of mammalian α-glucosidase. The EnzChek® Ultra Amylase Assay kit (E-33651) was purchased from Molecular Probes (Eugene, Oreg., USA).
(§2) In each bioassay the hydrolysis product was measured using the Victor 2 multi-plate reader (Wallac, Turku, Finland) and all samples were tested in duplicate or triplicate. Non-enzyme controls were subtracted from the enzyme absorbance and the percentage inhibition of test samples was calculated as: […]
(§3) :wherein A and B are the absorbance of the hydrolysis product in the absence and presence of inhibitor, respectively. Percent inhibition values were expressed as mean±standard deviation. The IC50 was the concentration required for 50% inhibition of enzyme activity under the assay conditions, and values were calculated using a four-parameter fit by Microsoft Excel Solver.
Mammalian α-Glucosidase Inhibition Assay
The α-glucosidase inhibitory activity of pure compounds was measured as described previously, with some modifications. The crude enzyme solution was prepared by suspending 50 mg of rat intestinal acetone powder in 0.9% sodium chloride solution (1.5 mL). The mixture was homogenised by sonication in ice-cold water for 10 minutes and then centrifuged at 10,000 g for 30 minutes. The resulting supernatant was used in the assay.
The substrate maltose (3 mM, 20 μL) was added to 96-well plates containing the crude α-glucosidase mixture (20 μL) and sample (10 μL). The microtitre plate was mixed on an orbital shaker for 30 seconds, incubated for 30 minutes at 37° C. and the reaction was stopped by the addition of 2 M Tris buffer (75 μL ). The glucose liberated was measured by adding 30 μL of the reaction mixture to the Glucose Hexokinase assay reagent (170 μL), which was mixed and incubated for 15 minutes at room temperature. The fluorescence of the mixture was measured at λex 340 nm, λem 470 nm.

[2] = molecular target: Bakers yeast α-glucosidase; assay: Yeast α-glucosidase inhibition assay
Description: as §1, §2, §3
Yeast α-Glucosidase Inhibition Assay
Extracts and fractions were dissolved in DMSO at 30 mg/mL or 10 mM for pure compounds, and diluted to working concentrations in sodium acetate buffer (pH 5.5). Final sample concentrations were 50 μg/mL, unless otherwise stated. The substrate, 4-methylumbelliferyl-α-D-glucopyranoside (84 μM, 45 μL), was added to 96-well plates containing 50 μL yeast α-glucosidase (3 mU/mL) and 5 μL of sample. The plate was mixed on an orbital shaker for 30 seconds and incubated for 20 minutes at 37° C. The reaction was stopped by the addition of 100 mM sodium-glycine buffer (100 μL, pH 10.6) and the plate was shaken for a further 30 seconds and the fluorescence intensity was measured at λex 355 nm, λem 460 nm. Fucoidan (20 μg/mL) was used as a positive inhibitor control, and sodium acetate buffer as a negative control.

[3] = molecular target: T1, porcine pancreatic α-amylase (Sus scrofa, UniProt P00690); assay: Porcine α-amylase inhibition assay (EnzChek Ultra Amylase Assay kit)
T1 sequence (P00690 16-511): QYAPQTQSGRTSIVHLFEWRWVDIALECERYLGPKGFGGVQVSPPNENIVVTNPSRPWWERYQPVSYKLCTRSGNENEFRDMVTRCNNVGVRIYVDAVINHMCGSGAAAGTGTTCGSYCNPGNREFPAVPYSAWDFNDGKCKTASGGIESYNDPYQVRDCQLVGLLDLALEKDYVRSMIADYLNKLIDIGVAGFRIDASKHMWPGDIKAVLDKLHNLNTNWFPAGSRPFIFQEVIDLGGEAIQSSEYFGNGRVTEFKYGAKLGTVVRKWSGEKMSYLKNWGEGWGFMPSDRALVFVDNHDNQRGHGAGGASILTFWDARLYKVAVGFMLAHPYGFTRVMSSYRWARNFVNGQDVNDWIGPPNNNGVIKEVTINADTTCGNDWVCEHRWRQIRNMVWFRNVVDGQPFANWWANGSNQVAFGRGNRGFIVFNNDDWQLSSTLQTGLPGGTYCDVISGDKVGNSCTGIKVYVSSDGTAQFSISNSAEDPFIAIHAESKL
Description: Bakers yeast α-glucosidase [EC 3.2.1.20], and porcine pancreatic α-amylase [EC 3.2.1.1]were used during bioassay guided fractionation. Rat intestinal acetone powder was used as a source of mammalian α-glucosidase.
as §2
:wherein A and B are the absorbance of the hydrolysis product in the absence and presence of inhibitor, respectively. Percent inhibition values were expressed as mean±standard deviation.
Porcine α-Amylase Inhibition Assay
This assay was performed using the EnzChek® Ultra Amylase Assay kit. Samples were dissolved in DMSO and diluted with 100 mM of 3-morpholinopropanesulfonic acid (MOPS) buffer (pH 6.9) to give a final concentration of […], unless otherwise stated.

[4] = porcine α-amylase, read-out: Amylase (porcine) IC50

Compound	Glucosidase (rat) % Inhibition at 200 μM [1] [%]	IC50 [2] [µM]	IC50 ([3]; Amylase (porcine) IC50, porcine α-amylase) [µM]	IC50 [3, 4] [µM]	activity against porcine α-amylase, fold greater than acarbose ([3]; relative to acarbose) [fold]	Glucosidase (rat) % Inhibition at 200 μM ([1]; 200 µM) [%]	Glucosidase (yeast) IC50 ([2]; unit given in the name cell for fucoidan) [µg/mL]
O=c1cc(-c2ccc(O)cc2)oc2cc(O)cc(O)c12 [Compound 18, Apigenin, reference compound]	−12.2	108	–	–	–	–	–
COc1cc(-c2cc(=O)c3c(O)cc(O)cc3o2)cc(OC)c1O [Compound 4, Tricin, reference compound]	16.1	70.6	104	–	–	–	–
COc1cc(C(O)C(COC(=O)C=Cc2ccc(O)cc2)Oc2c(OC)cc(-c3cc(=O)c4c(O)cc(O)cc4o3)cc2OC)ccc1O (stereo not drawn) [Compound 8, tricin-4′-O-[threo-β-guaiacyl-(9″-O-p-coumaroyl)-glyceryl]ether]	–	37.9	–	0.9	130	10.0	–
COc1cc(C(O)C(COC(=O)C=Cc2ccc(O)cc2)Oc2c(OC)cc(-c3cc(=O)c4c(O)cc(O)cc4o3)cc2OC)ccc1O (stereo not drawn) [Compound 7, tricin-4′-O-[erythro-β-guaiacyl-(9″-O-p-coumaroyl)-glyceryl]ether]	–	37.5	–	2	–	25.7	–
COc1cc(C(OC)C(CO)Oc2c(OC)cc(-c3cc(=O)c4c(O)cc(O)cc4o3)cc2OC)ccc1O (stereo not drawn) [Compound 6, tricin-4′-O-[erythro-β-guaiacyl-(7″-O-methyl)-glyceryl]ether]	6.1	72	–	26.5	–	–	–
Fucoidan [reference compound]	–	–	–	–	–	–	0.82
COc1cc(C(OC)C(CO)Oc2c(OC)cc(-c3cc(=O)c4c(O)cc(O)cc4o3)cc2OC)ccc1O (stereo not drawn) [Compound 5, tricin-4′-O-[threo-β-guaiacyl-(7″-O-methyl)-glyceryl]ether]	6.1	95.9	–	31.9	–	–	–
O=c1cc(-c2ccc(O)c(O)c2)oc2cc(O)cc(O)c12 [Compound 19, Luteolin, reference compound]	4.8	92.3	–	99.5	–	–	–
